Experimental findings from ChEMBL document CHEMBL1122409, “Estrogen receptor binding and estrogenic/antiestrogenic effects of two new metabolites of nitromiphene, 2-[p-[2-nitro-1-(4-methoxyphenyl)-2-phenylvinyl]phenoxy]-N-ethylpyrrolidine” (J Med Chem, 1983) are described below.

The structures appear in SMILES notation. The source made the active and inactive calls. No cut-off for these calls is given here.

Test [1] concerns the target T1, Estrogen receptor (Rattus norvegicus) (UniProt P06211+Q62986). Briefly: Displacement of [3H]estradiol from rat estrogen receptor; inactive. The format is protein assay. (In general: Displacement assays read how much labelled ligand stays bound in the presence of the test substance.)
Test [2] addresses T1, Estrogen receptor (Rattus norvegicus). Briefly: Displacement of [3H]estradiol from rat estrogen receptor; increased estrogenic activity. The format is protein assay.
Test [3] has the same target. Briefly: Antagonistic effect against estradiol benzoate induced uterine weight gain in immature rats at 1E-6M; increased estrogenic activity. The format is functional. Also on record: scale not given: the % may be the effect or the level left.
Test [4] shares this target. Briefly: Displacement of [3H]estradiol from rat estrogen receptor; modest estrogenic activity. Type of test: protein assay.
Test [5] shares this target. Briefly: Antagonistic effect on estradiol benzoate induced uterine weight gain in immature rats at 1E-6M. The format is functional. Also on record: scale not given: the % may be the effect or the level left.

Regarding `COc1ccc(C(C(=O)c2ccccc2)c2ccc(OCCN3CCCC3)cc2)cc1` (stereo not given), the outcome in test [1] was inactive.
`COc1ccc(/C(=C(/c2ccccc2)[N+](=O)[O-])c2ccc(OCCN3CCCC3=O)cc2)cc1`: the outcome in test [2] was Active. The compound further registered an Activity in test [3] of 43%.
In the case of `COc1ccc(/C(=C(/c2ccccc2)[N+](=O)[O-])c2ccc(OCCN3CCCC3)cc2)cc1`, the Activity entry in test [4] was “Weak activity”; in test [5], 11%.
